{"source": "patent US20230172878A1", "about": "“COMPOSITIONS AND METHODS FOR TREATING CYTOKINE STORMS” (priority 2020, published 2023)", "key": {"PBMCs [1]": {"tested_on": "PBMCs", "assay": "Cytokine production by morpholinofructose-stimulated PBMCs from two donors", "format": "cell-based, human", "protocol": "For FIGS. 2 through 7, cells from two donors were used, each in a separate independent study. Cytokines secreted in the media by the cells were measured at 2, 4, 6, 24 and 48 hours.\nIn the following examples cells were stimulated known cytokine stimulants, either lipopolysaccharide (“LPS”) or morpholino fructose. […] Varying levels of meglumine, or a salt thereof were then administered to the stimulated cells and the resulting cytokine levels measured.\nPeripheral blood mononuclear cells (“PBMC”s) from two donors were used to measure cytokine levels in response to various inputs. For each donor, one group of PBMCs were untreated. One group was allowed to remain in cell culture. A different group was treated with 40 mM meglumine. Another group was treated with morpholinofructose at 40 mM concentration. Three remaining groups were treated with morpholinofructose at 40 mM concentration and meglumine at concentration of 20 mM, 40 mM, and 80 mM. The groups were allowed to incubate for up to 50 hours. Cytokines secreted in the media by the cells were measured at 2, 4, 6, 24 and 48 hours The percentage of cells positive for IL-6 was determined by flow cytometry.\nThe same protocol was used to measure the addition of meglumine to reduce the levels of TNF-α (FIGS. 3A and 3B), MIP-1α (FIGS. 4A and 4B), MCP-1(FIGS. 5A and 5B), and MCP-1 ((FIGS. 6A and 6B)."}, "THP-1 cells": {"tested_on": "THP-1 cells", "assay": "LPS-induced cytokine secretion by THP-1 cells", "format": "cell-based, human", "conditions": "LPS 25 ng/ml, 24 hours", "protocol": "THP-1 cells (a human monocytic cell line derived from an acute monocytic leukemia patient) were cultured to 80% confluence. The THP-1 cells were then treated with LPS at 25 ng/ml to induce cytokine secretion. Cells were treated with either various concentration of meglumine. Tissue culture media was harvested at 24 hours and the levels of cytokines were determined."}, "PBMCs [2]": {"tested_on": "PBMCs", "assay": "LPS-stimulated cytokine-positive PBMCs, flow cytometry", "format": "cell-based, human", "conditions": "4 hours", "protocol": "Lipopolysaccharide (LPS) at […] concentration was used as a positive control for cytokine production in PBMCs. Meglumine was added at 40 mM and the cells allowed to incubate for 4 hours before sorting. […] (p<0.05 vs unstimulated and p<0.05 vs LPS). FIG. 8. The same protocol was sued to measure IL-1α production. […] FIG. 9."}, "mice [3]": {"tested_on": "mice", "conditions": "cited from earlier work"}, "mice [4]": {"tested_on": "mice", "conditions": "10× higher doses than the human equivalent dose proposed for clinical trials; cited from earlier work"}, "dogs": {"tested_on": "dogs", "conditions": "10× higher doses than the human equivalent dose proposed for clinical trials; cited from earlier work"}, "rats": {"tested_on": "rats", "conditions": "10× higher doses than the human equivalent dose proposed for clinical trials; cited from earlier work"}}}
{"smiles": "CNC[C@H](O)[C@@H](O)[C@H](O)[C@H](O)CO", "note": "[meglumine, (2R,3R,4R,5S)-6-(Methylamino)hexane-1,2,3,4,5-pentol]", "values": [{"measurement": "IL-6 levels in the PBMCs", "setting": "PBMCs [1]; 40 mM morpholinofructose plus meglumine 20, 40, 80 mM, measured at 2, 4, 6, 24 and 48 hours", "result": "reduced the IL-6 levels"}, {"measurement": "TNF-α production", "setting": "PBMCs [1]; 40 mM morpholinofructose plus various concentrations of meglumine, FIGS. 3A, 3B", "result": "decreased"}, {"measurement": "MIP 1α production", "setting": "PBMCs [1]; 40 mM morpholinofructose plus various concentrations of meglumine, FIGS. 4A, 4B", "result": "decreased"}, {"measurement": "MCP 1 production", "setting": "PBMCs [1]; 40 mM morpholinofructose plus various concentrations of meglumine, FIGS. 5A, 5B", "result": "decreased"}, {"measurement": "IL-10 production", "setting": "PBMCs [1]; 40 mM morpholinofructose plus various concentrations of meglumine, FIGS. 6A, 6B", "result": "decreased"}, {"measurement": "lowest concentration at which cytokine reduction was exhibited", "setting": "THP-1 cells", "result": 10, "unit": "mm"}, {"measurement": "secretion of IL-8", "setting": "THP-1 cells; meglumine at high concentrations, FIG. 11", "result": "ability to interfere with the secretion"}, {"measurement": "secretion of MIP-1α", "setting": "THP-1 cells; meglumine at high concentrations, FIG. 13", "result": "ability to interfere with the secretion"}, {"measurement": "secretion of MIP-1β", "setting": "THP-1 cells; meglumine at high concentrations, FIG. 14", "result": "ability to interfere with the secretion"}, {"measurement": "secretion of VEGF", "setting": "THP-1 cells; meglumine at high concentrations, FIG. 15", "result": "ability to interfere with the secretion"}, {"measurement": "LPS-stimulated increase in the percentage of IL-6 positive PBMCs", "setting": "PBMCs [2]; LPS 40 mM, meglumine 40 mM, p<0.05 vs unstimulated and vs LPS, FIG. 8", "result": "significantly reduced"}, {"measurement": "percentage of PBMCs expressing IL-1α", "setting": "PBMCs [2]; combination of LPS and meglumine 40 mM, FIG. 9", "result": "significantly increased"}]}
{"smiles": "COc1cc2nc(N3CCN(C(=O)c4ccco4)CC3)nc(N)c2cc1OC", "note": "[Prazosin, prazosin]", "values": [{"measurement": "catecholamines and cytokine responses", "setting": "mice [3]", "result": "reduces"}, {"measurement": "survival", "setting": "mice [3]; following various hyper-inflammatory stimuli", "result": "markedly increased survival"}]}
{"smiles": "CNC[C@H](O)[C@@H](O)[C@H](O)[C@H](O)CO.Cl", "note": "[meglumine HCl]", "values": [{"measurement": "safety", "setting": "mice [4]", "result": "safe"}, {"measurement": "safety", "setting": "dogs", "result": "safe"}, {"measurement": "safety", "setting": "rats", "result": "safe"}]}
{"smiles": "O=C(CN1CCOCC1)[C@@H](O)[C@H](O)[C@H](O)CO", "note": "[morpholinofructose, reference compound]", "values": [{"measurement": "IL-6 production versus control cells", "setting": "PBMCs [1]; human PBMCs incubated with 40 mM morpholinofructose, FIG. 7", "result": "significantly more IL-6 than control cells"}]}
